Converted amounts (≈) assume the structure as drawn.
Key:
[1] = target: T1, Suppressor of tumorigenicity 14 protein (Homo sapiens, UniProt Q9Y5Y6); experiment: Inhibition of recombinant human N-terminal met-His6-tagged matriptase catalytic domain (Gly596 to Val855 residues) expressed in Escherichia coli using Boc-QAR-AMC as substrate after 40 mins by fluorescence intensity assay
T1 sequence (Q9Y5Y6 whole entry): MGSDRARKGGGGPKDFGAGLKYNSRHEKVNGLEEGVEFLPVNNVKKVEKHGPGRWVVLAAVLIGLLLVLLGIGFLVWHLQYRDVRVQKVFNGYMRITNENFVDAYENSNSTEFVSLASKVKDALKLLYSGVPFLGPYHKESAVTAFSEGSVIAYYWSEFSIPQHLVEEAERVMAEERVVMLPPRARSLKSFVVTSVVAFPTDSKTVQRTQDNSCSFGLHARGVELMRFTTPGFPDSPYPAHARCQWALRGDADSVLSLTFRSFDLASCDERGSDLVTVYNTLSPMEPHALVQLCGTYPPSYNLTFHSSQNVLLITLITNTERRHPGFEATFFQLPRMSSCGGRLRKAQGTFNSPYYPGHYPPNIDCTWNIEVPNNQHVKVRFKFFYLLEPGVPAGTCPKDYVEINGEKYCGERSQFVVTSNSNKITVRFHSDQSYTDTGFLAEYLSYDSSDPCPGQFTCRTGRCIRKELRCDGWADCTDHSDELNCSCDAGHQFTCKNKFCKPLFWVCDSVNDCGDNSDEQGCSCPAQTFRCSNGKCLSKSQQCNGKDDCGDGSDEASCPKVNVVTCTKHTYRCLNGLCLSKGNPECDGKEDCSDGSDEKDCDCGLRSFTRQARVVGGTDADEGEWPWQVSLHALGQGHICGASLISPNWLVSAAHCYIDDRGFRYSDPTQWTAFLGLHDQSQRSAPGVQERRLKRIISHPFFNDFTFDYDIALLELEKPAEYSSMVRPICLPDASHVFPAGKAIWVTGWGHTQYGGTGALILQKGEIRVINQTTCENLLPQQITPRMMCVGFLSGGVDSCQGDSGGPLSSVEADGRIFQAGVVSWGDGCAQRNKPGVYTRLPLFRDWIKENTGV

[2] = Solubility of the compound in water at 24 hrs; type: physicochemical
[3] = organism: Homo sapiens; experiment: (§1) Selectivity index, ratio of compound effect for inhibition of recombinant C-terminal 10-His tagged human KLK14 (Gln19 to Met248 residues) expressed in mouse NS0 cells to compound effect for inhibition of recombinant 6His-Q-FLAG tagged human KLK5 expressed in baculovirus infected insect Sf9 cells
[4] = organism: Homo sapiens; experiment: Selectivity index, ratio of compound effect for inhibition of recombinant C-terminal 10-His tagged human thrombin (Met1 to Glu622 residues) expressed in mouse NS0 cells to compound effect for inhibition of recombinant 6His-Q-FLAG tagged human KLK5 expressed in baculovirus infected insect Sf9 cells
[5] = organism: Homo sapiens; experiment: Selectivity index, ratio of compound effect for inhibition of recombinant C-terminal 10-His tagged human KLK7 (Glu23 to His252 residues) expressed in mouse NS0 cells to compound effect for inhibition of recombinant 6His-Q-FLAG tagged human KLK5 expressed in baculovirus infected insect Sf9 cells
[6] = Absorption property in methanol assessed as maximum absorption wavelength by UV-spectra analysis; type: physicochemical
[7] = target: Prothrombin (Homo sapiens, UniProt P00734); experiment: Inhibition of recombinant C-terminal 10His-tagged human thrombin (Met1 to Glu622 residues) expressed in mouse NS0 cells using BOC-VPR-AMC as substrate after 40 mins by fluorescence intensity assay
[8] = target: Kallikrein-7 (Homo sapiens, UniProt P49862); experiment: Inhibition of recombinant C-terminal 10His-tagged human KLK7 (Glu23 to His252 residues) expressed in mouse NS0 cells using 5-FAM-E-A-L-Y-L-V-S-G-C as substrate after 40 mins by fluorescence intensity assay
[9] = organism: Homo sapiens; experiment: as §1, with “coagulation factor 10a (Leu24” for “KLK14 (Gln19”, “Lys488” for “Met248”, “baculovirus infected insect Sf9” for “mouse NS0”

Kallikrein-7, sequence (P49862 whole entry): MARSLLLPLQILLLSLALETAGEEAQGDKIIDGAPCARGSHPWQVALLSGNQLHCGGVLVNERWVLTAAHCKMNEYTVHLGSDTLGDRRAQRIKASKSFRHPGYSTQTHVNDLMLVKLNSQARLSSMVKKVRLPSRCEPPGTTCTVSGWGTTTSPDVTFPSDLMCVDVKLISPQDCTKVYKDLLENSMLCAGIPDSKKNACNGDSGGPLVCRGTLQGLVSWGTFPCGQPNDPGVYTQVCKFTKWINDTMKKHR

IC50 [1]: 25.1 µM | solubility at 24 h [2]: 1000 µg/mL (≈ 2510 µM) | Activity [6]: > 290 nm | IC50 [7]: 63.1 µM | IC50 [8]: > 100 µM
SMILES: N=C(N)c1ccc(NCc2nc(-c3ccccc3)c[nH]2)cc1OCc1cccnc1
Selectivity Index [3]: > 100 | Selectivity Index [4]: > 100 | Selectivity Index [5]: > 100 | Selectivity Index [9]: > 100
